# Data: patent US10968215B2 (SHANGHAI HAIHE PHARMACEUTICAL CO., LTD., priority 2016, dated 2021)
# Where two headings read alike, the source gives them in different places.
# Target: PRC2 complex (EZH2 Y641F/EED/SUZ12/RbAp48/AEBP2) (Homo sapiens (Human), UniProt Q15910, Y641F)
# Assay: Activity of a compound to PRC2 complex (EZH2 Y641F), HTRF
# [1] = read-out: IC50 (EZH2_Y641F), EZH2 Y641F PRC2 complex, HTRF, class symbols
# Procedure: Determination of the Activity of a Compound to PRC2 Complex (EZH2Y641F):
# Detection Method: Homogeneous Time-Resolved Fluorescence (HTRF)
# Reaction was conducted in darkness at room temperature for 4 h. […] The IC50 values of the compounds were calculated using SoftMax Pro 5.4.1 software.
# Sequence of PRC2 complex (EZH2 Y641F/EED/SUZ12/RbAp48/AEBP2) (Q15910 whole entry Y641F): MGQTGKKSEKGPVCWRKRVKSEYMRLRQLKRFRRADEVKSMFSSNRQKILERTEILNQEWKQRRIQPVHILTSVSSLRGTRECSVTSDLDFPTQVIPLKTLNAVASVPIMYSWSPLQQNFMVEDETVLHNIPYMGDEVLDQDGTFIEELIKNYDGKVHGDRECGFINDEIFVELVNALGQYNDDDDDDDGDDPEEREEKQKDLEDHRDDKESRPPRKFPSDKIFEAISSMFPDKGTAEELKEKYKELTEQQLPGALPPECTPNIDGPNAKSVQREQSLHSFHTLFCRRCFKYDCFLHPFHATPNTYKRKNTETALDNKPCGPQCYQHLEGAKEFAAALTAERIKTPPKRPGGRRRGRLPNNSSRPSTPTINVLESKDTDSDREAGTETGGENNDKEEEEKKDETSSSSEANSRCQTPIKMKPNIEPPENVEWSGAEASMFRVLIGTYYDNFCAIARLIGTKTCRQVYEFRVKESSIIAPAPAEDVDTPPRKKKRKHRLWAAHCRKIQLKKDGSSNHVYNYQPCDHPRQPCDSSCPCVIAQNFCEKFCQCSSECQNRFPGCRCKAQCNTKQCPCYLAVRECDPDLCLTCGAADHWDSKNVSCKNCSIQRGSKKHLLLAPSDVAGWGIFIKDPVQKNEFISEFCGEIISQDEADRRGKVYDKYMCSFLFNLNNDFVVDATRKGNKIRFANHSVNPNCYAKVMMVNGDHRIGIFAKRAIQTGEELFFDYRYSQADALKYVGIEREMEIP
# Sequence of PRC2 complex (EZH2 Y641F/EED/SUZ12/RbAp48/AEBP2) (O75530 whole entry partner): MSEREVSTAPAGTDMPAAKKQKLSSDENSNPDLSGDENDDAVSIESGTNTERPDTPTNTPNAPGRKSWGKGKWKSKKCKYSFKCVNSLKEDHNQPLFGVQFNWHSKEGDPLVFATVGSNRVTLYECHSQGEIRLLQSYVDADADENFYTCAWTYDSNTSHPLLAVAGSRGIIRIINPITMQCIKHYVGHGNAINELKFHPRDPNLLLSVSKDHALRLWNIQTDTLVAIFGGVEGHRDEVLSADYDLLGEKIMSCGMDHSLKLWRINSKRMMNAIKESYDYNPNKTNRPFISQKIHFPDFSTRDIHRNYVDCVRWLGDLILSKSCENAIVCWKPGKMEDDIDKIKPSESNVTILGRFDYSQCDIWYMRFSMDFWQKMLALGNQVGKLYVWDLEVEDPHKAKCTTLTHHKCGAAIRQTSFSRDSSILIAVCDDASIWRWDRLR
# Sequence of PRC2 complex (EZH2 Y641F/EED/SUZ12/RbAp48/AEBP2) (Q15022 whole entry partner): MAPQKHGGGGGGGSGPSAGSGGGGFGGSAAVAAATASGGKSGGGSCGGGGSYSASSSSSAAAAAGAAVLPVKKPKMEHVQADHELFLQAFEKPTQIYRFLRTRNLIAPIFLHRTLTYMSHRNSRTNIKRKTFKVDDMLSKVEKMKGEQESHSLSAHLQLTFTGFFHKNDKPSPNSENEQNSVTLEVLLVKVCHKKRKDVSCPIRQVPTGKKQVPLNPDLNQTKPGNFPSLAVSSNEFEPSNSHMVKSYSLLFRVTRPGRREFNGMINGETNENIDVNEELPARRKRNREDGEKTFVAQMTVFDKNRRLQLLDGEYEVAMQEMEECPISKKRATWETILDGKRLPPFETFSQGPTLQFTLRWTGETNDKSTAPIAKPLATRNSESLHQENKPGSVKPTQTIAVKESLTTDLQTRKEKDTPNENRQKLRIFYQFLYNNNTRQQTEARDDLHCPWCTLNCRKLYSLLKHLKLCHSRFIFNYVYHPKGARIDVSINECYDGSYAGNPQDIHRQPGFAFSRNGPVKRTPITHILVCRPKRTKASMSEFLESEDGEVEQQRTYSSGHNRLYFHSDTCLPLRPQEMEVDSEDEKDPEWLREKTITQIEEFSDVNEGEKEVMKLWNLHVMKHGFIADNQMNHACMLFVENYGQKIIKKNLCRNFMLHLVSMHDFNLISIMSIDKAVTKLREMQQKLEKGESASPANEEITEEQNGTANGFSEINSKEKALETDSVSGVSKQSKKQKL
# Sequence of PRC2 complex (EZH2 Y641F/EED/SUZ12/RbAp48/AEBP2) (Q09028 whole entry partner): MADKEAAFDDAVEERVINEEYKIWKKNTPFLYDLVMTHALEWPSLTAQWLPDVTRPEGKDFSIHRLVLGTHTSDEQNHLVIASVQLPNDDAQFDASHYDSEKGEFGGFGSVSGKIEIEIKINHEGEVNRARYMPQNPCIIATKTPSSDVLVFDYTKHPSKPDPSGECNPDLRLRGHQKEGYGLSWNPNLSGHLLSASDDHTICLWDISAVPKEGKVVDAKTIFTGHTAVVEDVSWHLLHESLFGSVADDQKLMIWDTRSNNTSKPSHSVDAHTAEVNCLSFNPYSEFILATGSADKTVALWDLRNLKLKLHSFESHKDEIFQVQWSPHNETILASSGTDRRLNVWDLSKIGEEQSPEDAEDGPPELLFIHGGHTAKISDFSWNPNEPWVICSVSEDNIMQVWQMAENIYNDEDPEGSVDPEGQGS
# Sequence of PRC2 complex (EZH2 Y641F/EED/SUZ12/RbAp48/AEBP2) (Q6ZN18 whole entry partner): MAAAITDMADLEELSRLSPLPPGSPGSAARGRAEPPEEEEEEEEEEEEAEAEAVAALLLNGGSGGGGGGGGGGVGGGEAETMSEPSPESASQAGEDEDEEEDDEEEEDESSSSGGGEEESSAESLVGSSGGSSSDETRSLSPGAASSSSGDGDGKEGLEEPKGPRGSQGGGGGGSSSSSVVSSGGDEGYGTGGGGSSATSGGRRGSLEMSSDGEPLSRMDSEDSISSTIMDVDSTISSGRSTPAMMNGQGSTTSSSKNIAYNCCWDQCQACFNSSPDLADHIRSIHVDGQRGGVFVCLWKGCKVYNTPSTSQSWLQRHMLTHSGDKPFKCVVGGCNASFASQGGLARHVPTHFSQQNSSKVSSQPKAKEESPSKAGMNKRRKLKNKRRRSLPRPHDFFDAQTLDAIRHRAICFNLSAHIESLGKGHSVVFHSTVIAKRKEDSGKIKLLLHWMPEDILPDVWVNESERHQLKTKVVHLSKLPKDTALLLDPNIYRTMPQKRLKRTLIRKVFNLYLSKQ
SMILES,IC50 [nM],IC50 [1] [nM]
"Cc1cc(C)c(CNC(=O)c2cc3cc(-c4cnn(C)c4)cn3c(C(C)N3CCOCC3)c2C)c(=O)[nH]1 (centres unmarked) [Example 42, N-((4,6-dimethyl-2-oxo-1,2-dihydropyridin-3-yl)methyl)-6-methyl-2-(1-methyl-1H-pyrazol-4-yl)-5-(1-morpholinylethyl)indolizine-7-carboxamide]",< 100,
"CNc1ccc(-c2ccn3c([C@H](C)N4CCN(CC(F)(F)F)CC4)c(C)c(C(=O)NCc4c(OC)cc(C)[nH]c4=O)cc23)cn1 (single isomer, unassigned) [Compound 164, (S)—N-((4-methoxy-6-methyl-2-oxo-1,2-dihydropyridin-3-yl)methyl)-6-methyl-1-(6-(methylamino)pyridin-3-yl)-5-(1-(4-(2,2,2-trifluoroethyl)piperazin-1-yl)ethyl)indolizine-7-formamide or (R)—N-((4-methoxy-6-methyl-2-oxo-1,2-dihydropyridin-3-yl)methyl)-6-methyl-1-(6-(methylamino)pyridin-3-yl)-5-(1-(4-(2,2,2-trifluoroethyl)piperazin-1-yl)ethyl)indolizine-7-formamide]",,100 to 1000
"COc1cc(C)[nH]c(=O)c1CNC(=O)c1cc2c(-c3ccc(C)nn3)ccn2c([C@H](C)N2CCN(CC(F)(F)F)CC2)c1C (single isomer, unassigned) [Compound 200, (S)—N-((4-methoxy-6-methyl-2-oxo-1,2-dihydropyridin-3-yl)methyl)-6-methyl-1-(6-methylpyridazin-3-yl)-5-(1-(4-(2,2,2-trifluoroethyl)piperazin-1-yl)ethyl)indolizine-7-formamide or (R)—N-((4-methoxy-6-methyl-2-oxo-1,2-dihydropyridin-3-yl)methyl)-6-methyl-1-(6-methylpyridazin-3-yl)-5-(1-(4-(2,2,2-trifluoroethyl)piperazin-1-yl)ethyl)indolizine-7-formamide]",,< 100
"Cc1cc(C)c(CNC(=O)c2cc3c(-c4ccc(N)nc4)ccn3c([C@H](C)N3CCN(CC(F)(F)F)CC3)c2C)c(=O)[nH]1 (single isomer, unassigned) [Compound 160, (S)-1-(6-aminopyridin-3-yl)-N-((4,6-dimethyl-2-oxo-1,2-dihydropyridin-3-yl)methyl)-6-methyl-5-(1-(4-(2,2,2-trifluoroethyl)piperazin-1-yl)ethyl)indolizine-7-carboxamide or (R) 1-(6-aminopyridin-3-yl)-N-((4,6-dimethyl-2-oxo-1,2-dihydropyridin-3-yl)methyl)-6-methyl-5-(1-(4-(2,2,2-trifluoroethyl)piperazin-1-yl)ethyl)indolizine-7-carboxamide]",,< 100
"Cc1cc(C)c(CNC(=O)c2cc3cc(-c4ccc5c(c4)OCO5)cn3c(C(C)N3CCOCC3)c2C)c(=O)[nH]1 (centres unmarked) [Example 31, 2-(benzo[d][1,3]dioxol-5-yl)-N-((4,6-dimethyl-2-oxo-1,2-dihydropyridine-3-yl)methyl)-6-methyl-5-(1-morphinolinylethyl)indolizin-7-carboxamide]",,100 to 1000
"Cc1cc(C)c(CNC(=O)c2cc3cncn3c(C(C)N3CCOCC3)c2C)c(=O)[nH]1 (centres unmarked) [Example 71, N-((4,6-dimethyl-2-oxo-1,2-dihydropyridin-3-yl)methyl)-6-methyl-5-(1-morphinolinylethyl)imidazo[1,5-a]pyridine-7-carboxamide]",,< 100
"Cc1cc(C)c(CNC(=O)c2cc3cc(-c4ccn(C)n4)cn3c(C(C)N3CCOCC3)c2C)c(=O)[nH]1 (centres unmarked) [Example 85, N-((4,6-dimethyl-2-oxo-1,2-dihydropyridin-3-yl)methyl)-6-methyl-2-(1-methyl-1H-pyrazole-3-yl)-5-(1-morpholinoethyl)indolizine-7-carboxamide]",,100 to 1000
"Cc1cc(C)c(CNC(=O)c2cc3c(-c4ccccc4)ccn3c(C(C)N3CCC(N(C)C)CC3)c2C)c(=O)[nH]1 (centres unmarked) [Example 127, N-((4,6-dimethyl-2-oxo-1,2-dihydropyridin-3-yl)methyl)-6-methyl-5-(4-dimethylaminopiperidinylethyl)-1-phenylindolizine-7-carboxamide]",< 100,
"Cc1cc(C)c(CNC(=O)c2cc3c(Br)ccn3c(C(C)N3CCOCC3)c2C)c(=O)[nH]1 (centres unmarked) [Example 54, 1-bromo-N-((4,6-dimethyl-2-oxo-1,2-dihydropyridin-3-yl)methyl)-6-methyl-5-(1-morpholinylethyl)indolizine-7-carboxamide]",,< 100
COc1cc(C)[nH]c(=O)c1CNC(=O)c1cc2cc(-c3nccn3C)cn2c(C(C)N2CCC(N(C)C)CC2)c1C (centres unmarked) [Example 107],,< 100
"Cc1cc(C)c(CNC(=O)c2cc3cc(-c4ccnn4C)cn3c(C(C)N3CCC(N(C)C)CC3)c2C)c(=O)[nH]1 (centres unmarked) [Example 106, N-((4,6-dimethyl-2-oxo-1,2-dihydropyridin-3-yl)methyl)-5-(1-(4-(dimethylamino)piperidine-1-yl)ethyl)-6-methyl-2-(1-methyl-1H-pyrazol-5-yl)indolizine-7-carboxamide]",< 100,
"Cc1cc(C)c(CNC(=O)c2cc3cc(-c4nccs4)cn3c(C(C)N3CCOCC3)c2C)c(=O)[nH]1 (centres unmarked) [Example 50, N-((4,6-dimethyl-2-oxo-1,2-dihydropyridin-3-yl)methyl)-6-methyl-5-(1-morphinolinylethyl)-2-(thiazol-2-yl)indolizine-7-carboxamide]",,< 100
C=CCOC(C)c1c(C)c(C(=O)NCc2c(C)cc(C)[nH]c2=O)cc2cccn12 (centres unmarked) [Example 3],,100 to 1000
"Cc1cc(C)c(CNC(=O)c2cc3cc(-c4cccc(CN5CCOCC5)c4)cn3c(C(C)N3CCOCC3)c2C)c(=O)[nH]1 (centres unmarked) [Example 80, N-((4,6-dimethyl-2-oxo-1,2-dihydropyridin-3-yl)methyl)-5-(1-morpholine-1-ethyl)-6-methyl-2-(3-(morpholinemethylene)phenyl)indolizin-7-amide]",,100 to 1000
"Cc1cc(C)c(CNC(=O)c2cc3cc(Br)cn3c(C(C)N3CCN(CCC(F)(F)F)CC3)c2C)c(=O)[nH]1 (centres unmarked) [Example 105, 2-bromo-N-((4,6-dimethyl-2-oxo-1,2-dihydropyridin-3-yl)methyl)-6-methyl-5-(1-(4-(3,3,3-trifluoropropyl)piperazin-1-yl)ethyl)indolizine-7-carboxamide]",,1000 to 10000
"COc1cc(-c2ccn3c([C@H](C)N4CCN(CC(F)(F)F)CC4)c(C)c(C(=O)NCc4c(OC)cc(C)[nH]c4=O)cc23)ccn1 (single isomer, unassigned) [Compound 194, (S)—N-((4-methoxy-6-methyl-2-oxo-1,2-dihydropyridin-3-yl)methyl)-1-(2-methoxypyridin-4-yl)-6-methyl-5-(1-(4-(2,2,2-trifluoroethyl)piperazin-1-yl)ethyl)indolizine-7-carboxamide or (R)—N-((4-methoxy-6-methyl-2-oxo-1,2-dihydropyridin-3-yl)methyl)-1-(2-methoxypyridin-4-yl)-6-methyl-5-(1-(4-(2,2,2-trifluoroethyl)piperazin-1-yl)ethyl)indolizine-7-carboxamide]",,< 100
"CCCc1cc(C)[nH]c(=O)c1CNC(=O)c1cc2c(-c3ccc(N)nc3)ccn2c(C(C)N2CCN(CC(F)(F)F)CC2)c1C (centres unmarked) [Compound 185, 1-(6-aminopyridin-3-yl)-6-methyl-N-((6-methyl-2-oxo-4-propyl-1,2-dihydropyridine-3-yl)methyl)-5-(1-(4-(2,2,2-trifluoroethyl)piperazin-1-yl)ethyl)indolizine-7-carboxamide]",< 100,
